According to patent US20130337564A1, “Treatment of Pluripotent Cells” (Janssen Biotech, Inc., priority 2012, published 2013):

Assays:
[1] = MTS viability (toxicity) assay of cells expressing pluripotency markers; type: cell-based, human; parameters: Raw data (duplicate), first replicate / Average: unit not given here; details: human, MTS on day 4, relative to Activin A + Wnt3a positive control, read-out: % Control (percentage viability of control); for viability at 4 days, 2.5 μM: cmpd conc 2.5 μM; for viability at 4 days, 5 μM: cmpd conc 5 μM; for viability at 4 days, 10 μM: cmpd conc 10 μM
Method in brief: (§1)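 Cells expressing pluripotency markers, derived from human embryonic stem cells, were plated at 20,000 cells per well in 96-well clear-bottom plates and cultured overnight. Test compounds were applied in assay medium on days 1 and 2, and compound-free medium on days 3 and 4. On day 4, MTS was added and optical density at 490 nm was read in duplicate.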

[2] = system: cells expressing pluripotency markers derived from human embryonic stem cells; experiment: as above; type: cell-based; parameters: Raw data (duplicate), first replicate / Average: unit not given here; details: for viability at 10 µM: Homo sapiens, Embryonic stem cell, viability of cells expressing pluripotency markers, relative to control; for Average of raw data (duplicate), optical density at 490 nm: MTS on day 4
Method in brief: as §1

[3] = system: human embryonic stem cell line H1; experiment: Dose titration secondary assay: cell number, H1; type: cell-based; details: Homo sapiens, Embryonic stem cell, positive control (Wnt3a/Activin A) normalized to 1.000; for activity at 0.156 µM: Conc 0.156 μM; for activity at 0.313 µM: Conc 0.313 μM; for activity at 0.625 µM: Conc 0.625 μM; for activity at 1.25 µM: Conc 1.25 μM; for activity at 2.5 µM: Conc 2.5 μM; for activity at 5 µM: Conc 5 μM; for activity at 10 µM: Conc 10 μM
Protocol: It was important to confirm the activity of hits identified from primary screening and further analyze the range of activity by dose titration. New samples of a selective subset of primary screening hits were obtained as dry powders, solubilized to make fresh stock reagents, and diluted into secondary confirmation assays to evaluate effects on human embryonic stem cells.
Culture of two human embryonic stem cells (H1 and H9) was conducted as described in Example 1. Colonies of cells were maintained in an undifferentiated, pluripotent state on Matrigel™ ([…]) coated polystyrene plastic, using a 1:30 dilution of Matrigel™ in DMEM:F12 to coat the surface. Cells were split by enzymatic passage every four days on average. Passage was performed by exposing cell monolayers to a solution of collagenase (1 mg/ml; Sigma-Aldrich) for 10 to 60 minutes at 37° C. followed by gentle scraping with a pipette tip to recover cell clusters. Clusters were allowed to sediment by gravity, then washed to remove residual collagenase. Cell clusters were split at a 1:3 ratio for maintenance culture or a 1:1 ratio for subsequent assay. The human embryonic stem cell lines were maintained at less than passage 50 and routinely evaluated for normal karyotypic phenotype and absence of mycoplasma contamination.
Cell clusters of the H1 or H9 human embryonic stem cell lines used in the assay were evenly resuspended in culture medium and plated onto Matrigel™-coated 96-well Packard VIEWPLATES (PerkinElmer) in volumes of 100 μl/well. MEF conditioned medium supplemented with 8 ng/ml bFGF was used for initial plating and expansion. Daily feeding was conducted by aspirating spent culture medium from each well and replacing with an equal volume of fresh medium. Cultures were allowed to expand one to three days after plating prior to initiating assay. Plates were maintained at 37° C., 5% CO2 in a humidified box for the duration of assay.
A subset of hits resulting from primary screening was used for follow-up study and subsequent secondary assays. Twenty compounds available as dry powders were solubilized as 10 mM stocks in DMSO and stored dessicated at […] until use Immediately prior to assay, compound stocks were diluted 1:1000 to make 10 μM test compound in DMEM:F12 base medium (Invitrogen) supplemented with 0.5% FCS (HyClone) and 100 ng/ml Activin A (R&D Biosystems). This was further diluted two-fold in series to make a seven point dilution curve for each compound, also in DMEM:F12 base medium with 0.5% FCS and 100 ng/ml Activin A.
Assay was initiated by aspirating culture medium from cell monolayers in each well followed by three washes in PBS to remove residual growth factors and serum. Test volumes of 100 μl per well were added back containing medium with 0.5% FCS and different concentrations of inhibitor compounds with 100 ng/ml Activin A, without Wnt3a. Positive control wells contained the same base medium with 0.5% FCS and with 20 ng/ml Wnt3a (R&D Biosystems) in the absence of test compound. Negative control wells contained the same base medium with 0.5% FCS, in the absence of Activin A, Wnt3a, or test compound. Assay wells were aspirated and fed again with identical concentrations of test compound or control solutions on day 2 of assay. On days 3 and 4, all assay wells were aspirated and fed with DMEM:F12 supplemented with 2% FCS and 100 ng/ml Activin A in the absence of both test compound or Wnt3a. Parallel negative control wells were maintained on days 3 and 4 in DMEM:F12 base medium with 2% FCS.
At the end of culture, cells in 96-well plates were washed twice with PBS then fixed with 4% paraformaldehyde at room temperature for 20 minutes, washed three times more with PBS, and then permeabilized with 0.5% Triton X-100 for 20 minutes at room temperature. After fixing and permeabilizing, cells were washed again three times with PBS and then blocked with 4% chicken serum (Invitrogen) in PBS for 30 minutes at room temperature. […]

[4] = MTS viability assay raw reading, replicate 1
[5] = MTS viability assay raw reading, replicate 2
[6] = average of duplicate MTS raw readings

Row | Structure (SMILES) | viability at 4 days, 2.5 μM [1] [%] | viability at 4 days, 5 μM [1] [%] | viability at 4 days, 10 μM [1] [%] | viability at 10 µM [2] [%] | Average ([2]; MTS viability readout, average of duplicate raw data) | Raw data (duplicate), first replicate ([2]; MTS viability readout, raw value of replicate 1) | Raw data (duplicate), second replicate ([2]; MTS viability readout, raw value of replicate 2) | Average of raw data (duplicate), optical density at 490 nm ([2]; cmpd conc 2.5 μM) | Average of raw data (duplicate), optical density at 490 nm ([2]; cmpd conc 5 μM) | Average of raw data (duplicate), optical density at 490 nm ([2]; cmpd conc 10 μM) | activity at 0.156 µM [3] [%] | activity at 0.313 µM [3] [%] | activity at 0.625 µM [3] [%] | activity at 1.25 µM [3] [%] | activity at 2.5 µM [3] [%] | activity at 5 µM [3] [%] | activity at 10 µM [3] [%] | Raw data (duplicate), first replicate [2, 4] | Raw data (duplicate), second replicate [2, 5] | Average [2, 6]
1 | COC(=O)c1cncc(-n2cc(C3=C(c4nn(CCO)c5ccccc45)C(=O)NC3=O)c3cc(Cl)ccc32)c1 [Compound 150, Methyl 5-(5-chloro-3-{4-[1-(2-hydroxyethyl)-1H-indazol-3-yl]-2,5-dioxo-2,5-dihydro-1H-pyrrol-3-yl}-1H-indol-1-yl)pyridine-3-carboxylate] | 94.8 | 84.9 | 14.3 | 81.7 | 0.673 | 0.668 | 0.678 | 0.7630 | 0.6972 | 0.2259 | 104 | 124 | 102 | 121 | 129 | 116 | 5.2 | – | – | –
2 | OCCC#Cc1nc(-c2ccc(F)cc2)c(-c2ccncc2)n1CCCc1ccccc1 [Compound 158, 4-[4-(4-Fluorophenyl)-1-(3-phenylpropyl)-5-pyridin-4-yl-1H-imidazol-2-yl]but-3-yn-1-ol] | 93.2 | 96.2 | 66.5 | 77.7 | – | – | – | 0.7971 | 0.8183 | 0.6052 | 110 | 122 | 123 | 116 | 102 | 90.5 | 5.3 | 0.629 | 0.659 | 0.644
3 | CN(CCO)CCCn1nc(C2=C(c3cn(-c4cccnc4)c4ccccc34)C(=O)NC2=O)c2ccccc21 [Compound 198, 3-(1-{3-[(2-Hydroxyethyl)(methyl)amino]propyl}-1H-indazol-3-yl)-4-(1-pyridin-3-yl-1H-indol-3-yl)-1H-pyrrole-2,5-dione] | 92.5 | 83.8 | 49.7 | 112 | – | – | – | 0.7480 | 0.6893 | 0.4619 | 82.2 | 75.4 | 74.2 | 89.9 | 103 | 106 | 101 | 0.856 | 0.905 | 0.881
4 | O=C1NC(=O)C(c2cn(-c3cccnc3)c3ccccc23)=C1c1cn(CCO)c2ccccc12 [Compound 206, 3-[1-(2-Hydroxyethyl)-1H-indol-3-yl]-4-(1-pyridin-3-yl-1H-indol-3-yl)-1H-pyrrole-2,5-dione] | 93.1 | 90.2 | 7.3 | 110 | – | – | – | 0.7517 | 0.7326 | 0.1793 | 80.4 | 93.1 | 109 | 112 | 102 | 116 | 3.9 | 0.845 | 0.877 | 0.861
5 | Cc1c[nH]c(-c2cnc(NCCNc3ccc(C#N)cn3)nc2-c2ccc(Cl)cc2Cl)n1 [Compound 221, 6-[(2-{[4-(2,4-Dichlorophenyl)-5-(4-methyl-1H-imidazol-2-yl)pyrimidin-2-yl]amino}ethyl)amino]pyridine-3-carbonitrile] | 112 | 82.3 | 67.5 | 98.8 | – | – | – | 0.9324 | 0.7191 | 0.6128 | 108 | 113 | 111 | 112 | 89.6 | 88.9 | 19.3 | – | – | –
6 | CC(C)(O)CCn1nc(C2=C(c3cn(-c4cccnc4)c4ccccc34)C(=O)NC2=O)c2ccccc21 [Compound 223, 3-[1-(3-Hydroxy-3-methylbutyl)-1H-indazol-3-yl]-4-(1-pyridin-3-yl-1H-indol-3-yl)-1H-pyrrole-2,5-dione] | 99.6 | 93.9 | 83.7 | 97.8 | – | – | – | 0.8427 | 0.8021 | 0.7287 | 77.6 | 102 | 103 | 116 | 132 | 135 | 128 | 0.770 | 0.786 | 0.778
7 | O=C1NC(=O)C(c2nn(CCO)c3ccccc23)=C1c1cn(-c2cncnc2)c2ccccc12 [Compound 226, 3-[1-(2-Hydroxyethyl)-1H-indazol-3-yl]-4-(1-pyrimidin-5-yl-1H-indol-3-yl)-1H-pyrrole-2,5-dione] | 86.3 | 86.7 | 78.9 | 83.1 | – | – | – | 0.7474 | 0.7506 | 0.6945 | 77.4 | 78.5 | 80.5 | 73.9 | 64 | 45.8 | 29 | 0.683 | 0.688 | 0.686
